In ChEMBL document CHEMBL4483862, “Open-source discovery of chemical leads for next-generation chemoprotective antimalarials” (2018):

Test system: Plasmodium berghei
Assay: Luciferase/luciferin-expressing antifolate-resistant parasites were used to infect a culture of HepG2 cells that were pre-incubated with compounds. Infected hepatocytes emit light due to the luciferase reaction. Assay results are presented as the percent inhibition of light emission compared to control. […]
Type: functional
Settings: sporozoite; for IC50: read-out: LUCIFERASE INFECTION ASSAY - IC50; for IC90: read-out: LUCIFERASE INFECTION ASSAY - IC90

## Cc1cccc(OC2CCN(C(=O)NCc3cc[nH]n3)CC2)c1C
  IC50: > 10 µM
  IC90: > 10 µM

## O=C(c1cc(S(=O)(=O)Nc2cccc(-n3cccn3)c2)c[nH]1)N1CCCC1
  IC50: 9.51 µM
  IC90: > 10 µM

## CCOC(=O)c1ccc(S(=O)(=O)N2CCC(N(C)C)CC2)cc1
  IC50: > 10 µM
  IC90: > 10 µM

## O=C1CN(c2ccc(NC(=O)CCc3ccco3)cn2)CCN1
  IC50: > 10 µM
  IC90: > 10 µM

## N#Cc1cccc(-c2nnco2)c1
  IC50: > 10 µM
  IC90: > 10 µM

## CN1CCCN(c2ccc(NC(=O)OCC(F)(F)F)cc2F)CC1
  IC50: > 10 µM
  IC90: > 10 µM

## COc1cccc(CC(=O)N2CCCC(C(=O)NCC3CC3)C2)c1 (stereo unspecified)
  IC50: > 10 µM
  IC90: > 10 µM

## CC(C)c1nccn1Cc1cccc(NC(=O)c2ccc(Br)o2)c1
  IC50: > 10 µM
  IC90: > 10 µM

## CC(NC(=O)CN1CCCc2c(F)cc(F)cc21)c1ccco1 (stereo unspecified)
  IC50: > 10 µM
  IC90: > 10 µM

## CS(=O)(=O)N1CCCC(C(=O)NC(c2ccccc2)C2CCCCC2)C1 (stereo unspecified)
  IC50: > 10 µM
  IC90: > 10 µM

## CC(C)c1noc(CCC(=O)Nc2ccc(F)cc2F)n1
  IC50: > 10 µM
  IC90: > 10 µM

## O=C(Nc1cccc2c[nH]nc12)c1cn(-c2ccccc2Br)nn1
  IC50: > 10 µM
  IC90: > 10 µM

## CC1CCc2ccccc2N1CC(=O)N(CCC(N)=O)Cc1ccccc1 (stereo unspecified)
  IC50: > 10 µM
  IC90: > 10 µM

## COc1cc(C)ccc1Oc1ccc(NC(=O)NC2CCN3CCCCC23)cn1 (stereo unspecified)
  IC50: > 10 µM
  IC90: > 10 µM

## COc1ccc(NC(=O)c2cccc(Cl)c2)cc1OCc1cccnc1
  IC50: > 10 µM
  IC90: > 10 µM

## O=C(NCc1ccc(N2CCCCC2)nc1)c1cccc2c[nH]nc12
  IC50: > 10 µM
  IC90: > 10 µM

## CCN(Cc1cccc(F)c1)C(=O)Nc1ccccc1-n1nc(C)cc1C
  IC50: > 10 µM
  IC90: > 10 µM

## CCc1nc(COC(=O)c2c(C)nsc2NC)cs1
  IC50: 1.53 µM
  IC90: 5.52 µM

## CC(=O)c1csc(NC(=O)c2cc(C(C)C)nc3c2c(C)nn3C(C)(C)C)n1
  IC50: > 10 µM
  IC90: > 10 µM

## CC(C)Sc1ncccc1C(=O)N1CCN(c2oc(C3CC3)nc2C#N)CC1
  IC50: > 10 µM
  IC90: > 10 µM

## O=C(Nc1nnc[nH]1)C1(c2ccc(F)cc2)CC1
  IC50: > 10 µM
  IC90: > 10 µM

## CC(=O)NCCc1nccn1Cc1ccccc1
  IC50: > 10 µM
  IC90: > 10 µM

## COc1ccc(Sc2ccc(NC(=O)C(C)n3ccnc3)cc2Cl)cc1 (stereo unspecified)
  IC50: > 10 µM
  IC90: > 10 µM

## Cc1nc(NC(=O)c2ccc(-n3ccnc3)nc2)sc1SCC#N
  IC50: > 10 µM
  IC90: > 10 µM

## Cc1cc(C(=O)NC(C)Cc2ccc(Br)cc2)on1 (stereo unspecified)
  IC50: > 10 µM
  IC90: > 10 µM

## O=C(Nc1nc(-c2cccs2)cs1)c1c[nH]c(C(=O)N2CCCC2)c1
  IC50: > 10 µM
  IC90: > 10 µM

## CCOC(=O)Nc1cccc(N)c1C
  IC50: > 10 µM
  IC90: > 10 µM

## Cc1nn2c(=O)cc(Cn3ccnc3)nc2s1
  IC50: > 10 µM
  IC90: > 10 µM

## O=C(CNc1ccccc1-c1ccccc1)NCC(F)(F)F
  IC50: > 10 µM
  IC90: > 10 µM

## Cn1c(Cl)cnc1CN1CCN(CC(=O)Nc2ccccc2Cl)CC1
  IC50: > 10 µM
  IC90: > 10 µM

## FC(F)(F)Oc1ccc(Nc2cc(-c3cccc(Cl)c3)ncn2)cc1
  IC50: > 9.02 µM
  IC90: > 9.02 µM

## Cc1ccc(Br)cc1NC(=O)C(C)NC(=O)OC(C)(C)C (stereo unspecified)
  IC50: > 10 µM
  IC90: > 10 µM

## CCOC(=O)c1c[nH]nc1S(=O)(=O)Nc1ccc[nH]c1=O
  IC50: > 10 µM
  IC90: > 10 µM

## CCOc1ccc(N2CC(C(=O)N3CCCC(c4nc(C)no4)C3)CC2=O)cc1 (stereo unspecified)
  IC50: > 10 µM
  IC90: > 10 µM

## CC1CCN(C(=O)CSC(F)(F)F)CC1
  IC50: > 10 µM
  IC90: > 10 µM

## Cc1cc(C)c(NC(=O)NCCCOCC(C)C)c(Cl)c1
  IC50: > 10 µM
  IC90: > 10 µM

## Cn1cnnc1C1CCCN(S(C)(=O)=O)C1 (stereo unspecified)
  IC50: > 10 µM
  IC90: > 10 µM

## COc1cccc(CN2CCC2(C)C(=O)Nc2ccccc2Cc2ccccc2)c1OC (stereo unspecified)
  IC50: > 7.66 µM
  IC90: > 7.66 µM

## Cc1ccsc1C(=O)Nc1ccc(N2CCN(C)CC2)cn1
  IC50: 0.0143 µM
  IC90: 0.343 µM

## Cc1ccc(S(=O)(=O)CCC(=O)OCC(=O)NCC2CCCO2)cc1 (stereo unspecified)
  IC50: > 10 µM
  IC90: > 10 µM

## Cc1cc(=O)n2nc(COC(=O)c3ccccc3Nc3ccccc3)sc2n1
  IC50: > 10 µM
  IC90: > 10 µM

## COc1cccc(C(=O)Nc2cccc(Nc3ccc(-c4cc(OC)c(OC)c(OC)c4)cn3)c2)c1
  IC50: > 6.8 µM
  IC90: > 6.8 µM

## CCc1nnc(Sc2ncnc3ccsc23)[nH]1
  IC50: > 10 µM
  IC90: > 10 µM

## CCCOc1ccc2ccccc2c1CN(C)c1cncc(-n2cccn2)n1
  IC50: > 10 µM
  IC90: > 10 µM

## O=C(COC(=O)Cc1ccsc1)Nc1cc(Cl)ccc1-n1cncn1
  IC50: > 10 µM
  IC90: > 10 µM

## CC(C)c1ccc(CS(=O)(=O)C(C)C(=O)NC2CCCC2)cc1 (stereo unspecified)
  IC50: > 10 µM
  IC90: > 10 µM

## Cc1nnc(N(C)CCCc2n[nH]c(N)c2C#N)c2ccccc12
  IC50: > 10 µM
  IC90: > 10 µM

## Clc1ccc(OCc2cccnc2)c(CN2CCN(c3ncccn3)CC2)c1
  IC50: > 10 µM
  IC90: > 10 µM

## N#Cc1ccccc1S(=O)(=O)Nc1cccc(-n2cccn2)c1
  IC50: > 10 µM
  IC90: > 10 µM

## CN(C)C(=O)CC(NC(=O)Nc1ccc(F)cc1F)c1ccccc1 (stereo unspecified)
  IC50: > 10 µM
  IC90: > 10 µM

## CCn1c(NC(=O)C2=NOC(c3ccccc3)C2)nc2ccccc21 (stereo unspecified)
  IC50: 3.35 µM
  IC90: 3.82 µM

## CN(C)c1ccc(C(=O)Oc2ccc(-c3nnco3)cc2)cn1
  IC50: > 10 µM
  IC90: > 10 µM

## CNS(=O)(=O)Cc1ccccc1CNCc1ccc(OC(F)F)cc1
  IC50: > 10 µM
  IC90: > 10 µM

## CN(C)C(=O)Cc1nc(CSc2nc3ncccn3n2)cs1
  IC50: > 10 µM
  IC90: > 10 µM

## CNS(=O)(=O)Cc1ccccc1CNCc1cccc(Oc2ccccc2)c1
  IC50: > 10 µM
  IC90: > 10 µM

## Cc1cc(Cl)ccc1NC(=O)c1cn(C)nc1C(F)(F)F
  IC50: > 10 µM
  IC90: > 10 µM

## Cn1ccnc1CN(C(=O)c1cnn(-c2ccccc2)c1)C1CC1
  IC50: > 10 µM
  IC90: > 10 µM

## CC(=O)Nc1nc(C(=O)Nc2nc3ccccc3n2C2CCCCC2)cs1
  IC50: > 10 µM
  IC90: > 10 µM

## COc1ccc(C(N)=O)cc1NC(=O)NCc1ccc(N2CCCCCC2)nc1
  IC50: > 10 µM
  IC90: > 10 µM

## Cc1onc(-c2ccccc2)c1C(=O)NCC1COCCO1 (stereo unspecified)
  IC50: > 10 µM
  IC90: > 10 µM

## CNC(=O)NC(=O)C(C)N1CCN(CCc2cccs2)CC1 (stereo unspecified)
  IC50: > 10 µM
  IC90: > 10 µM

## COc1cccc(C(=O)Nc2cccc(Nc3ccc(-c4cccc(NC(C)=O)c4)cn3)c2)c1
  IC50: > 7.29 µM
  IC90: > 7.29 µM

## CNc1snc(C)c1C(=O)OCc1nc(C(C)C)no1
  IC50: 6.11 µM
  IC90: 6.24 µM

## CCOc1cc(C(=O)N2CCOCC2)ccc1OCc1cccnc1
  IC50: > 10 µM
  IC90: > 10 µM

## Cc1nnc(SC2CCCCC2=O)n1C1CCCCC1 (stereo unspecified)
  IC50: > 10 µM
  IC90: > 10 µM

## Cc1ccc(-c2csc(NC(=O)CCn3ccnc3)n2)c(C)c1
  IC50: > 10 µM
  IC90: > 10 µM

## CC(=O)c1c(C)cc(C)c(CN2C(=O)CN(c3ccccc3)C2=O)c1C
  IC50: > 10 µM
  IC90: > 10 µM

## O=C(Nc1cccc(Cn2ccnc2)c1)c1nn(-c2ccccc2)c2c1CCC2
  IC50: > 10 µM
  IC90: > 10 µM

## Nc1cccc(OCc2cccnc2)c1
  IC50: > 10 µM
  IC90: > 10 µM

## Cc1cc(NC(=O)CCc2ccc(C)c(Cl)c2)n(C)n1
  IC50: > 10 µM
  IC90: > 10 µM

## Cn1c(Cn2nnc(-c3cccc(F)c3)n2)nc2ccccc2c1=O
  IC50: > 10 µM
  IC90: > 10 µM

## CC(Cn1cccn1)NCc1ccc(F)c(F)c1 (stereo unspecified)
  IC50: > 10 µM
  IC90: > 10 µM

## CN(C)c1ccc(CNC(=O)C2CCN(C(=O)NCc3ccco3)CC2)cc1
  IC50: > 10 µM
  IC90: > 10 µM

## CC(C)c1noc(COC(=O)c2ccc(-c3ccc(O)cc3)cc2)n1
  IC50: > 10 µM
  IC90: > 10 µM

## CC(Cc1ccco1)NCc1ccc(-n2ccnc2)cc1 (stereo unspecified)
  IC50: > 10 µM
  IC90: > 10 µM

## COc1cc(CNC(=O)c2scnc2C)ccc1OC1CCCC1
  IC50: 2.89 µM
  IC90: > 10 µM

## CCCS(=O)(=O)N1CCC(NC(=O)c2scnc2C)CC1
  IC50: > 10 µM
  IC90: > 10 µM

## CC(=O)c1cc2c(cc1NC(=O)c1ccc(Cn3cccn3)cc1)OCO2
  IC50: > 10 µM
  IC90: > 10 µM

## CC(CNC(=O)C1(C)CC1(Cl)Cl)N(C)c1ccccc1 (stereo unspecified)
  IC50: > 10 µM
  IC90: > 10 µM

## Cc1cc(NC(=O)c2ccco2)sc1C(=O)Nc1nnc[nH]1
  IC50: > 10 µM
  IC90: > 10 µM

## Cn1ncc2c(=O)n(Cc3sc4ccccc4c3Cl)cnc21
  IC50: > 10 µM
  IC90: > 10 µM

## O=C(Nc1ccc2oc(=O)[nH]c2c1)c1cnn(-c2ccc(Cl)cc2)c1
  IC50: > 10 µM
  IC90: > 10 µM

## COc1ccc2c(c1)CCCN2Cc1nn2c(=O)cc(C)nc2s1
  IC50: > 10 µM
  IC90: > 10 µM

## COc1ccccc1CNc1cccc2cnccc12
  IC50: > 10 µM
  IC90: > 10 µM

## CC1(C(=O)NC2CCN(S(C)(=O)=O)CC2)CC1(Cl)Cl (stereo unspecified)
  IC50: > 10 µM
  IC90: > 10 µM

## O=C(NCc1ccc(-n2cccn2)cc1)c1[nH]nc(C2CC2)c1Br
  IC50: 1.27 µM
  IC90: 1.52 µM

## Cc1cc(C(=O)NC2CCN(c3ncnc4sc5c(c34)CCCC5)CC2)on1
  IC50: > 10 µM
  IC90: > 10 µM

## CCCc1nc(C)c(C(=O)Nc2nccn2Cc2ccccc2)s1
  IC50: > 10 µM
  IC90: > 10 µM

## Cc1[nH]c(C(=O)N2CCN(CC3CCCCC3)CC2)c(C)c1C(=O)OC(C)C
  IC50: > 10 µM
  IC90: > 10 µM

## CN(CCCN1C(=O)c2ccccc2C1=O)CC(=O)N(C)C
  IC50: > 10 µM
  IC90: > 10 µM

## CCc1nnc(NC(=O)c2csc(Cc3ccccc3)n2)s1
  IC50: 8.84 µM
  IC90: > 10 µM

## CCn1c(=O)n(CC(=O)Nc2ccc(NC(=O)NC3CC3)cc2)c2ccccc21
  IC50: > 10 µM
  IC90: > 10 µM

## COc1ccccc1-c1cc(C(=O)Nc2ccc(N3CCCC3)cc2)no1
  IC50: > 10 µM
  IC90: > 10 µM
